Measured values taken from US20240207268A1, “PYRAZOLYLPYRIMIDINES FOR TREATING MALIGNANT SOLID TUMOR” (BIOTHERYX, INC., priority 2021, published 2024).

What was measured:
[1] = Solubility in water; assay type: physicochemical; conditions: in water at 25° C.
[2] = Steady state toxicokinetics of compound A22 in Beagle dogs (28-day study); conditions: dog, in vivo, oral gavage
Description: (§1) The toxicology studies of compound A22 were performed in Sprague Dawley rats and Beagle dogs. In GLP, 28-day (once daily, 7 days per week) studies, compound A22 was administered as a di-HCl salt or di-p-toluenesulfonate salt by oral gavage. The results are summarized in Tables 1 and 2, where HNSTD is highest nonseverely toxic dose; NOAEL is no-observed-adverse-effect-level; and STDio is severely toxic dose in 10%.

[3] = tested on: Sprague Dawley rats; test: GLP 28-day oral toxicology study of compound A22 in Sprague Dawley rats; assay type: in vivo; conditions: once daily oral gavage, di-HCl or di-p-toluenesulfonate salt
Description: as §1

[4] = as above; assay type: in vivo; conditions: rat, in vivo, once daily oral gavage, di-HCl or di-p-toluenesulfonate salt, read-out: NOAEL (no-observed-adverse-effect-level) dose
Description: as §1

[5] = tested on: Beagle dogs; test: GLP 28-day oral toxicology study of compound A22 in Beagle dogs; assay type: in vivo; conditions: once daily oral gavage, di-HCl or di-p-toluenesulfonate salt
Description: as §1

[6] = as above; assay type: in vivo; conditions: dog, in vivo, once daily oral gavage, di-HCl or di-p-toluenesulfonate salt, read-out: NOAEL (no-observed-adverse-effect-level) dose
Description: as §1

[7] = Steady state toxicokinetics of compound A22 in Sprague Dawley rats (28-day study); conditions: rat, in vivo, oral gavage
Description: as §1

[8] = female dogs, 0.06 mg/kg/day (NOAEL)
[9] = female dogs, 0.2 mg/kg/day (HNSTD)
[10] = male dogs, 0.06 mg/kg/day (NOAEL)
[11] = male dogs, 0.2 mg/kg/day (HNSTD)
[12] = female rats, 0.7 mg/kg/day (NOAEL)
[13] = female rats, 2.5 mg/kg/day (STD10)
[14] = male rats, 0.7 mg/kg/day (NOAEL)
[15] = male rats, 2.5 mg/kg/day (STD10)

Question: Which solubility [1] does the source give for Cc1ccc(S(=O)(=O)O)cc1.Cc1ccc(S(=O)(=O)O)cc1.Cn1ncc(-c2nc(N[C@H]3CC[C@H](N)CC3)ncc2Cl)c1CC1CC1 [crystalline di-p-toluenesulfonate salt, di-p-toluensulfonate of (1r,4r)-N^1-(5-chloro-4-(5-(cyclopropylmethyl)-1-methyl-1H-pyrazol-4-yl)pyrimidin-2-yl)cyclohexane-1,4-diamine] here?
Answer: about 2 mg/mL

Question: With Cn1ncc(-c2nc(N[C@H]3CC[C@H](N)CC3)ncc2Cl)c1CC1CC1 [A22, (1r,4r)-N^1-(5-chloro-4-(5-(cyclopropylmethyl)-1-methyl-1H-pyrazol-4-yl)pyrimidin-2-yl)cyclohexane-1,4-diamine] as the compound, how does the AUC(0-t) [2, 8] read?
Answer: 129 ng·h/mL

Question: And the Cmax [2, 8]?
Answer: 7.55 ng/mL

Question: What about the AUC(0-t) [2, 9] of the same compound?
Answer: 471 ng·h/mL

Question: What about the Cmax [2, 9] of the same compound?
Answer: 30.6 ng/mL

Question: What about the AUC(0-t) [2, 10] of the same compound?
Answer: 102 ng·h/mL

Question: What about the Cmax [2, 10] of the same compound?
Answer: 6.38 ng/mL

Question: And the AUC(0-t) [2, 11]?
Answer: 567 ng·h/mL

Question: And the Cmax [2, 11]?
Answer: 34.4 ng/mL

Question: And the “STD10 (severely toxic dose in 10%) dose” value [3]?
Answer: 2.5 mg/kg/day

Question: What about the NOAEL at 28 day [4] of the same compound?
Answer: 0.7 mg/kg/day

Question: What about the “HNSTD (highest nonseverely toxic dose)” value [5] of the same compound?
Answer: 0.2 mg/kg/day

Question: And the NOAEL at 28 day [6]?
Answer: 0.06 mg/kg/day

Question: And the AUC(0-t) [7, 12]?
Answer: 160 ng·h/mL

Question: And the Cmax [7, 12]?
Answer: 13.6 ng/mL

Question: What about the AUC(0-t) [7, 13] of the same compound?
Answer: 2390 ng·h/mL

Question: What about the Cmax [7, 13] of the same compound?
Answer: 156 ng/mL

Question: And the AUC(0-t) [7, 14]?
Answer: 152 ng·h/mL

Question: And the Cmax [7, 14]?
Answer: 13.7 ng/mL

Question: What about the AUC(0-t) [7, 15] of the same compound?
Answer: 2520 ng·h/mL

Question: What about the Cmax [7, 15] of the same compound?
Answer: 184 ng/mL
